Test results taken from the supplement of paper PMC10307832.

How the values were obtained:
Test in all cases: relative viability (nuclei count vs DMSO), 5 days (fraction); higher = more cells survive
GSK126 + OSI-027 = compound: CC[C@H](C)N1C=C(C2=C(C=C(C=C21)C3=CN=C(C=C3)N4CCNCC4)C(=O)NCC5=C(C=C(NC5=O)C)C)C [GSK126] + COc1cccc2cc(-c3nc([C@H]4CC[C@H](C(=O)O)CC4)n4ncnc(N)c34)[nH]c12 [OSI-027] (partner 0.5 µM)
Procedure, shortened: (§1)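 Relative viability is defined as nuclei in treated wells over nuclei in vehicle wells. Duplicate plates were run and medians reported. Lung cancer cell lines in 1536-well plates were dosed by pin tool one day after seeding, with one drug or with a fixed anchor-drug dose plus five library-drug doses (not always all listed) in √10 steps, and nuclei were counted after 5 days.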

MLN4924 + Pictilisib = compound: NS(=O)(=O)OC[C@@H]1C[C@@H](n2ccc3c(N[C@H]4CCc5ccccc54)ncnc32)C[C@@H]1O [MLN4924] + CS(=O)(=O)N1CCN(Cc2cc3nc(-c4cccc5[nH]ncc45)nc(N4CCOCC4)c3s2)CC1 [Pictilisib] (partner 1 µM)
Procedure, shortened: as §1

GSK126 + Olaparib = compound: CC[C@H](C)N1C=C(C2=C(C=C(C=C21)C3=CN=C(C=C3)N4CCNCC4)C(=O)NCC5=C(C=C(NC5=O)C)C)C [GSK126] + O=C(c1cc(Cc2n[nH]c(=O)c3ccccc23)ccc1F)N1CCN(C(=O)C2CC2)CC1 [Olaparib] (partner 8 µM)
Procedure, shortened: as §1

MLN4924 + Olaparib = compound: NS(=O)(=O)OC[C@@H]1C[C@@H](n2ccc3c(N[C@H]4CCc5ccccc54)ncnc32)C[C@@H]1O [MLN4924] + O=C(c1cc(Cc2n[nH]c(=O)c3ccccc23)ccc1F)N1CCN(C(=O)C2CC2)CC1 [Olaparib] (partner 8 µM)
Procedure, shortened: as §1

| Cell Line | relative viability (GSK126 + OSI-027; first compound 0.08 µM) | relative viability (GSK126 + OSI-027; first compound 0.253 µM) | relative viability (GSK126 + OSI-027; first compound 0.8 µM) | relative viability (GSK126 + OSI-027; first compound 2.53 µM) | relative viability (GSK126 + OSI-027; first compound 8 µM) | relative viability (MLN4924 + Pictilisib; first compound 0.04 µM) | relative viability (MLN4924 + Pictilisib; first compound 0.1265 µM) | relative viability (MLN4924 + Pictilisib; first compound 0.4 µM) | relative viability (MLN4924 + Pictilisib; first compound 1.265 µM) | relative viability (MLN4924 + Pictilisib; first compound 4 µM) | relative viability (GSK126 + Olaparib; first compound 0.08 µM) | relative viability (GSK126 + Olaparib; first compound 0.253 µM) | relative viability (GSK126 + Olaparib; first compound 0.8 µM) | relative viability (GSK126 + Olaparib; first compound 2.53 µM) | relative viability (GSK126 + Olaparib; first compound 8 µM) | relative viability (MLN4924 + Olaparib; first compound 0.04 µM) | relative viability (MLN4924 + Olaparib; first compound 0.1265 µM) | relative viability (MLN4924 + Olaparib; first compound 0.4 µM) | relative viability (MLN4924 + Olaparib; first compound 1.265 µM) | relative viability (MLN4924 + Olaparib; first compound 4 µM) |
| --- | --- | --- | --- | --- | --- | --- | --- | --- | --- | --- | --- | --- | --- | --- | --- | --- | --- | --- | --- | --- |
| HCC-15 | 0.752 | 0.687 | 0.696 | 0.713 | 0.695 | 0.475 | 0.343 | 0.172 | 0.0896 | 0.107 | 0.749 | 0.776 | 0.686 | 0.608 | 0.745 | 0.318 | 0.164 | 0.159 | 0.106 | 0.0825 |
| NCI-H3122 | 1.23 | 0.953 | 0.963 | 1.01 | 0.896 | 0.591 | 0.376 | 0.222 | 0.153 | 0.136 | 0.713 | 0.712 | 0.628 | 0.654 | 0.628 | 0.535 | 0.235 | 0.251 | 0.112 | 0.0876 |
| 201T | 0.822 | 0.772 | 0.736 | 0.865 | 0.759 | 0.783 | 0.837 | 0.833 | 0.425 | 0.366 | 0.867 | 0.845 | 0.831 | 0.906 | 0.886 | 0.832 | 0.589 | 0.548 | 0.225 | 0.267 |
| RERF-LC-KJ | 0.648 | 0.66 | 0.597 | 0.652 | 0.575 | 0.532 | 0.315 | 0.154 | 0.139 | 0.192 | 0.935 | 0.979 | 1.04 | 0.826 | 0.83 | 0.624 | 0.344 | 0.221 | 0.206 | 0.218 |
| ChaGo-K-1 | 0.609 | 0.611 | 0.562 | 0.545 | 0.544 | 0.515 | 0.434 | 0.369 | 0.258 | 0.272 | 0.419 | 0.419 | 0.432 | 0.5 | 0.431 | 0.279 | 0.205 | 0.227 | 0.153 | 0.147 |
| NCI-H1734 | 0.681 | 0.532 | 0.665 | 0.579 | 0.602 | 0.568 | 0.743 | 0.29 | 0.13 | 0.154 | 0.633 | 0.685 | 0.628 | 0.701 | 0.756 | 0.652 | 0.547 | 0.128 | 0.108 | 0.107 |
| NCI-H1651 | 0.718 | 0.755 | 0.699 | 0.789 | 0.697 | 0.706 | 0.514 | 0.45 | 0.0787 | 0.115 | 0.183 | 0.175 | 0.176 | 0.178 | 0.161 | 0.176 | 0.182 | 0.176 | 0.138 | 0.0847 |
| PC-14 | 1.06 | 0.854 | 0.757 | 0.939 | 0.83 | 0.849 | 0.634 | 0.307 | 0.0791 | 0.0776 | 0.348 | 0.295 | 0.335 | 0.354 | 0.396 | 0.188 | 0.129 | 0.0764 | 0.0624 | 0.0504 |
| NCI-H358 | 1 | 0.85 | 0.812 | 0.904 | 0.897 | 0.481 | 0.496 | 0.227 | 0.175 | 0.188 | 0.705 | 0.723 | 0.555 | 0.613 | 0.751 | 0.537 | 0.494 | 0.312 | 0.0861 | 0.105 |
| NCI-H1915 | 0.609 | 0.622 | 0.704 | 0.655 | 0.594 | 0.773 | 0.81 | 0.59 | 0.215 | 0.201 | 0.271 | 0.277 | 0.25 | 0.266 | 0.269 | 0.314 | 0.22 | 0.221 | 0.142 | 0.129 |
| NCI-H1975 | 0.867 | 0.81 | 0.747 | 0.749 | 0.722 | 0.534 | 0.699 | 0.314 | 0.167 | 0.156 | 0.785 | 0.789 | 0.721 | 0.809 | 0.762 | 0.706 | 0.948 | 0.829 | 0.498 | 0.213 |
| BEN | 0.324 | 0.349 | 0.281 | 0.288 | 0.287 | 0.566 | 0.398 | 0.254 | 0.163 | 0.155 | 1.23 | 1.01 | 1.16 | 1.13 | 1.12 | 0.662 | 0.328 | 0.264 | 0.189 | 0.207 |
| EPLC-272H | 0.295 | 0.309 | 0.318 | 0.353 | 0.303 | 0.119 | 0.246 | 0.0811 | 0.135 | 0.135 | 0.818 | 0.749 | 0.697 | 0.806 | 0.804 | 0.352 | 0.176 | 0.0677 | 0.0995 | 0.105 |
| NCI-H2228 | 0.635 | 0.729 | 0.579 | 0.613 | 0.634 |  | 0.504 | 0.101 | 0.111 | 0.196 | 0.649 | 0.75 | 0.511 | 0.669 | 0.691 | 0.486 | 0.532 | 0.279 | 0.109 | 0.162 |
| NCI-H661 | 0.769 | 0.737 | 0.762 | 0.746 | 0.74 | 0.414 | 0.567 | 0.482 | 0.343 | 0.337 | 0.706 | 0.74 | 0.722 | 0.689 | 0.705 | 0.614 | 0.575 | 0.39 | 0.31 | 0.372 |
